Measurements: patent US20230091047A1 (priority 2019, published 2023)
Where two headings read alike, the source gives them in different places.

Assays:
[1] = test system: HBV (HepG2.117 cell line, inducibly HBV producing); assay: Anti-HBV activity: intracellular HBV DNA by real-time PCR in HepG2.117 cells after 3 days of treatment; assay type: cell-based, hepatitis B virus
How it was run: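 Read-out is intracellular HBV DNA, measured by real-time PCR using HBV-specific primers and probe. Cells were stable, inducible HBV-producing HepG2.117 (Tet-off). Serially diluted compound was applied for 3 days after replication was induced.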

[2] = in vitro; assay type: cell-based; conditions: human, HepG2 or HepG2.117 cells, ATPlite, mean value
How it was run: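 Luminescent ATP quantitation served as the viability endpoint following a 3- or 4-day incubation with test compounds.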

[3] = Hepatitis B virus, HepG2.117, 72 h, HepG2.117 cells, 3 days of treatment, intracellular HBV DNA by real-time PCR; mean value; read-out: EC50 (μM, mean value)
[4] = 3-days incubation (unmarked values)
[5] = Hepatitis B virus, HepG2.117, 72 h, HepG2.117 cells, intracellular HBV DNA by real-time PCR, 3 days of treatment, mean value; read-out: EC50 (μM, mean value)
[6] = 3-days incubation (not marked with *)

CNC(=O)c1ccc(-n2c(N[C@H]3CC3(C)C)nc3c(c2=O)C[C@@H](C)N(C(=O)c2ccc(Cl)c(Cl)c2)C3)cc1 [Compound C334, 4-[(6R)-7-(3,4-dichlorobenzoyl)-2-{[(1S)-2,2-dimethylcyclopropyl]amino}-6-methyl-4-oxo-5,6,7,8-tetrahydropyrido[3,4-d]pyrimidin-3(4H)-yl]-N-methylbenzamide]
EC50 [1, 3]: 1.89 µM
CC50 at 3 days [2, 4]: > 50 µM

CNC(=O)c1ccc(-n2c(N[C@@H](C)c3cc(C)no3)nc3c(c2=O)C[C@@H](C)N(C(=O)c2ccc(Cl)c(Cl)c2)C3)cc1 (single isomer, unassigned) [Compound C433b]
EC50 [1, 5]: 0.73 µM
CC50 at 3 days [2, 6]: > 50 µM

CNC(=O)c1ncc(-n2c(N[C@@H](C)c3ccc(OC(F)(F)F)cc3)nc3c(c2=O)C[C@@H](C)N(C(=O)c2ccc(Cl)c(Cl)c2)C3)n1C [Compound C620]
EC50 [1, 5]: 0.17 µM
CC50 at 3 days [2, 6]: > 50 µM

CNC(=O)c1ccc(-n2c(NCc3nncn3-c3ccccc3)nc3c(c2=O)C[C@@H](C)N(C(=O)c2ccc(Cl)c(Cl)c2)C3)cc1 [Compound C542]
EC50 [1, 5]: 12.9 µM
CC50 at 3 days [2, 6]: > 50 µM

COc1cccnc1-c1ccc(-n2c(NC(C)C)nc3c(c2=O)CCN(C(=O)c2ccc(Cl)c(Cl)c2)C3)cc1 [Compound C172, 7-(3,4-dichlorobenzoyl)-3-[4-(3-methoxypyridin-2-yl)phenyl]-2-[(propan-2-yl)amino]-5,6,7,8-tetrahydropyrido[3,4-d]pyrimidin-4(3H)-one]
EC50 [1, 3]: 1.66 µM
CC50 at 3 days [2, 4]: 5.3 µM

CNC(=O)c1cnc(-n2c(NC(C)C)nc3c(c2=O)C[C@@H](C)N(C(=O)c2ccc(Cl)c(Cl)c2)C3)cn1 [Compound C288, 5-[(6R)-7-(3,4-dichlorobenzoyl)-6-methyl-4-oxo-2-[(propan-2-yl)amino]-5,6,7,8-tetrahydropyrido[3,4-d]pyrimidin-3(4H)-yl]-N-methylpyrazine-2-carboxamide]
EC50 [1, 3]: 0.07 µM
CC50 at 3 days [2, 4]: > 50 µM

COc1ccc(CNc2nc3c(c(=O)n2-c2cccc(OC)c2)CCN(C(=O)c2ccc(Cl)c(Cl)c2)C3)cc1 [Compound C8, 7-(3,4-dichlorobenzoyl)-3-(3-methoxyphenyl)-2-{[(4-methoxyphenyl)methyl]amino}-5,6,7,8-tetrahydropyrido[3,4-d]pyrimidin-4(3H)-one]
EC50 [1, 3]: 1 µM
CC50 at 3 days [2, 4]: > 50 µM

COc1ccc(CNc2nc3c(c(=O)[nH]2)C[C@H](C)N(C(=O)c2ccc(Cl)c(Cl)c2)C3)cc1 [Compound C63B, (6S)-7-(3,4-dichlorobenzoyl)-2-{[(4-methoxyphenyl)methyl]amino}-6-methyl-5,6,7,8-tetrahydropyrido[3,4-d]pyrimidin-4(3H)-one]
EC50 [1, 3]: 1.63 µM
CC50 at 3 days [2, 4]: 35.3 µM

COc1ccc(CNc2nc3c(c(=O)[nH]2)CCN(C(=O)c2ccc(I)cc2)C3)cc1 [Compound C117, 7-(4-iodobenzoyl)-2-{[(4-methoxyphenyl)methyl]amino}-5,6,7,8-tetrahydropyrido[3,4-d]pyrimidin-4(3H)-one]
EC50 [1, 3]: 9.61 µM
CC50 at 3 days [2, 4]: 43.5 µM

CNC(=O)c1ccc(-n2c(N3CCC[C@@H]3c3ccccc3)nc3c(c2=O)C[C@@H](C)N(C(=O)c2ccc(Cl)c(Cl)c2)C3)cc1 (single isomer, unassigned) [Compound C401a]
EC50 [1, 5]: 0.36 µM
CC50 at 3 days [2, 6]: 13.8 µM

CNC(=O)c1ccc(-n2c(N[C@H](C)c3ccc(C(F)(F)F)c(Cl)c3)nc3c(c2=O)C[C@@H](C)N(C(=O)c2ccc(Cl)c(Cl)c2)C3)cc1 (single isomer, unassigned) [Compound C664a]
EC50 [1, 5]: 0.13 µM
CC50 at 3 days [2, 6]: 6.7 µM

CNC(=O)c1ccc(-n2c(Nc3cn(C)nn3)nc3c(c2=O)C[C@@H](C)N(C(=O)c2ccc(Cl)c(Cl)c2)C3)cc1 [Compound C421]
EC50 [1, 5]: > 8.1 µM
CC50 at 3 days [2, 6]: > 50 µM

COc1ccc(CNc2nc3c(c(=O)n2-c2ccccc2OC)C[C@H](C)N(C(=O)c2ccc(Cl)c(Cl)c2)C3)cc1 (single isomer, unassigned) [Compound C36Ab]
EC50 ([1]; HepG2.117 cells, 3 days of treatment, intracellular HBV DNA by real-time PCR; mean value; read-out: EC50 (μM, mean value)): 2.12 µM
CC50 at 3 days [2, 4]: > 50 µM

CNC(=O)c1ccc(-n2c(N(C)Cc3cnn(-c4ccccc4)n3)nc3c(c2=O)C[C@@H](C)N(C(=O)c2ccc(Cl)c(Cl)c2)C3)cc1 [Compound C603]
EC50 [1, 5]: 0.21 µM
CC50 at 3 days [2, 6]: > 50 µM

CNC(=O)c1ccc(-n2c(N[C@H](C)c3ccccc3OC(F)F)nc3c(c2=O)C[C@@H](C)N(C(=O)c2ccc(Cl)c(Cl)c2)C3)cc1 (single isomer, unassigned) [Compound C438a]
EC50 [1, 5]: 0.73 µM
CC50 at 3 days [2, 6]: 29.2 µM

CC(C)Nc1nc2c(c(=O)n1-c1ccc(-n3cnnn3)cc1)C[C@@H](C)N(C(=O)c1ccc(Cl)c(Cl)c1)C2 [Compound C460]
EC50 [1, 5]: 0.09 µM
CC50 at 3 days [2, 6]: > 50 µM

CNC(=O)c1ccc(-n2c(N[C@H](CC3CC3)c3ccccc3)nc3c(c2=O)C[C@@H](C)N(C(=O)c2ccc(Cl)c(Cl)c2)C3)cc1 (single isomer, unassigned) [Compound C437a]
EC50 [1, 5]: 0.16 µM
CC50 at 3 days [2, 6]: 24.6 µM

COc1ccc(CNc2nc3c(c(=O)n2-c2ccc(S(C)(=O)=O)cc2)C[C@@H](c2ccc(F)cc2)N(C(=O)c2ccc(Cl)c(Cl)c2)C3)cc1 (single isomer, unassigned) [Compound C109A, (6*S)-7-(3,4-dichlorobenzoyl)-6-(4-fluorophenyl)-3-[4-(methanesulfonyl)phenyl]-2-{[(4-methoxyphenyl)methyl]amino}-5,6,7,8-tetrahydropyrido[3,4-d]pyrimidin-4(3H)-one]
EC50 [1, 3]: > 50 µM
CC50 at 3 days [2, 4]: > 50 µM

CNC(=O)c1ccc(-n2c(NCC3(C)CC3)nc3c(c2=O)C[C@@H](C)N(C(=O)c2ccc(Cl)c(Cl)c2)C3)cc1 [Compound C381]
EC50 [1, 5]: 0.95 µM
CC50 at 3 days [2, 6]: 31.8 µM

CNC(=O)C12CC(n3c(NC(C)C)nc4c(c3=O)C[C@@H](C)N(C(=O)c3ccc(Cl)c(Cl)c3)C4)(C1)C2 [Compound C261, 3-[(6R)-7-(3,4-dichlorobenzoyl)-6-methyl-4-oxo-2-[(propan-2-yl)amino]-5,6,7,8-tetrahydropyrido[3,4-d]pyrimidin-3(4H)-yl]-N-methylbicyclo[1.1.1]pentane-1-carboxamide]
EC50 [1, 3]: 0.34 µM
CC50 at 3 days [2, 4]: > 50 µM

COc1ccc(CNc2nc3c(c(=O)n2C2CCCCC2)CCN(C(=O)c2ccc(Cl)c(Cl)c2)C3)cc1 [Compound C64, 3-cyclohexyl-7-(3,4-dichlorobenzoyl)-2-{[(4-methoxyphenyl)methyl]amino}-5,6,7,8-tetrahydropyrido[3,4-d]pyrimidin-4(3H)-one]
EC50 [1, 3]: 8.91 µM
CC50 at 3 days [2, 4]: > 50 µM

CNC(=O)c1ccc(-n2c(N[C@H](C)c3ccc4[nH]ncc4c3)nc3c(c2=O)C[C@@H](C)N(C(=O)c2ccc(Cl)c(Cl)c2)C3)cc1 (single isomer, unassigned) [Compound C529a]
EC50 [1, 5]: 0.16 µM
CC50 at 3 days [2, 6]: > 50 µM

CNC(=O)c1ccc(-n2c(NC(C)C)nc3c(c2=O)C[C@@H](C)N(C(=O)c2cc4c(F)cccc4[nH]2)C3)cc1 [Compound C505]
EC50 [1, 5]: 0.02 µM
CC50 at 3 days [2, 6]: 25.6 µM

CNC(=O)c1ccc(-n2c(N[C@@H]3CCC34CCC4)nc3c(c2=O)C[C@@H](C)N(C(=O)c2ccc(Cl)c(Cl)c2)C3)cc1 (single isomer, unassigned) [Compound C346a]
EC50 [1, 5]: 0.94 µM
CC50 at 3 days [2, 6]: 27.6 µM

CNC(=O)c1ccc(-n2c(NC(C)C)nc3c(c2=O)C[C@@H](C)N(C(=O)c2ccc(Cl)c(C(F)(F)F)c2)C3)c(C2CC2)c1 [Compound C661]
EC50 [1, 5]: 0.07 µM
CC50 at 3 days [2, 6]: 25 µM

CNC(=O)c1ccc(-n2c(NC)nc3c(c2=O)C[C@@H](C)N(C(=O)c2ccc(Cl)c(Cl)c2)C3)nc1 [Compound C331, 6-[(6R)-7-(3,4-dichlorobenzoyl)-6-methyl-2-(methylamino)-4-oxo-5,6,7,8-tetrahydropyrido[3,4-d]pyrimidin-3(4H)-yl]-N-methylpyridine-3-carboxamide]
EC50 [1, 3]: 0.95 µM
CC50 at 3 days [2, 4]: > 50 µM

CC(C)Nc1ncc(-n2c(NC(C)C)nc3c(c2=O)C[C@@H](C)N(C(=O)c2ccc(Cl)c(Cl)c2)C3)cn1 [Compound C279, (6R)-7-(3,4-dichlorobenzoyl)-6-methyl-2-[(propan-2-yl)amino]-3-{2-[(propan-2-yl)amino]pyrimidin-5-yl}-5,6,7,8-tetrahydropyrido[3,4-d]pyrimidin-4(3H)-one]
EC50 [1, 3]: 0.31 µM
CC50 at 3 days [2, 4]: > 46 µM

COc1ccc(CNc2nc3c(c(=O)n2C2CCS(=O)(=O)CC2)CCN(C(=O)c2ccc(Cl)c(Cl)c2)C3)cc1 [Compound C119, 4-[7-(3,4-dichlorobenzoyl)-2-{[(4-methoxyphenyl)methyl]amino}-4-oxo-5,6,7,8-tetrahydropyrido[3,4-d]pyrimidin-3(4H)-yl]-1λ^6-thiane-1,1-dione]
EC50 [1, 3]: 6.95 µM
CC50 at 3 days [2, 4]: 33.5 µM

CC(C)Nc1nc2c(c(=O)n1-c1ccc(C(=O)N3CCN(C)CC3)cc1)C[C@@H](C)N(C(=O)c1ccc(Cl)c(Cl)c1)C2 [Compound C169, (6R)-7-(3,4-dichlorobenzoyl)-6-methyl-3-[4-(4-methylpiperazine-1-carbonyl)phenyl]-2-[(propan-2-yl)amino]-5,6,7,8-tetrahydropyrido[3,4-d]pyrimidin-4(3H)-one]
EC50 [1, 3]: 0.15 µM
CC50 at 3 days [2, 4]: 30.7 µM

CC(C)Nc1nc2c(c(=O)n1[C@H]1CC[C@H](C(=O)O)CC1)C[C@@H](C)N(C(=O)c1ccc(Cl)c(Cl)c1)C2 [Compound C254, trans-4-[(6R)-7-(3,4-dichlorobenzoyl)-6-methyl-4-oxo-2-[(propan-2-yl)amino]-5,6,7,8-tetrahydropyrido[3,4-d]pyrimidin-3(4H)-yl]cyclohexane-1-carboxylic acid]
EC50 [1, 3]: 1.99 µM
CC50 at 3 days [2, 4]: > 50 µM
